Measured values as given in ChEMBL document CHEMBL1201861, “Genomics of Drug Sensitity in Cancer screening data, Wellcome Trust Sanger Institute”.

Key:
Experiment in all cases: cells
[1] = test system: COLO-829; type: functional, cell-based, Homo sapiens; conditions: Homo sapiens, COLO-829
Description: SANGER: Inhibition of human COLO-829 cell growth in a cell viability assay.

[2] = test system: COR-L88; type: functional, cell-based, Homo sapiens; conditions: Homo sapiens, COR-L88;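 also: growth inhibition of COR-L88 cells, read out with a cell viability assay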
Description: SANGER: Inhibition of human COR-L88 cell growth in a cell viability assay.

[3] = test system: D-247MG; type: functional, cell-based, Homo sapiens; conditions: Homo sapiens, D-247MG
Description: SANGER: Inhibition of human D-247MG cell growth in a cell viability assay.

[4] = test system: DB; type: functional, cell-based, Homo sapiens; conditions: Homo sapiens, DB
Description: SANGER: Inhibition of human DB cell growth in a cell viability assay.

[5] = test system: DOHH-2; type: functional, cell-based, Homo sapiens; conditions: Homo sapiens, DOHH-2;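 also: growth inhibition of human DOHH-2 cells, read out with a cell viability assay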
Description: SANGER: Inhibition of human DOHH-2 cell growth in a cell viability assay.

[6] = test system: EM-2; type: functional, cell-based, Homo sapiens; conditions: Homo sapiens, EM-2;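 also: growth inhibition of EM-2 cells, read out with a cell viability assay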
Description: SANGER: Inhibition of human EM-2 cell growth in a cell viability assay.

[7] = test system: ES1; type: functional, cell-based, Homo sapiens; conditions: Homo sapiens, ES1;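 also: growth inhibition of ES1 cells, read out with a cell viability assay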
Description: SANGER: Inhibition of human ES1 cell growth in a cell viability assay.

[8] = test system: EW-24; type: functional, cell-based, Homo sapiens; conditions: Homo sapiens, EW-24;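 also: human EW-24 cancer cell line, growth inhibition read out via a cell viability assay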
Description: SANGER: Inhibition of human EW-24 cell growth in a cell viability assay.

[9] = test system: GI-ME-N; type: functional, cell-based, Homo sapiens; conditions: Homo sapiens, GI-ME-N;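 also: growth inhibition of human GI-ME-N cells, read out with a cell viability assay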
Description: SANGER: Inhibition of human GI-ME-N cell growth in a cell viability assay.

[10] = test system: HH; type: functional, cell-based, Homo sapiens; conditions: Homo sapiens, HH
Description: SANGER: Inhibition of human HH cell growth in a cell viability assay.

[11] = test system: HuTu80; type: functional, cell-based, Homo sapiens, HUTU-80; conditions: Homo sapiens, HuTu80;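 also: growth inhibition of HuTu80 human cells, determined with a cell viability readout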
Description: SANGER: Inhibition of human HUTU-80 cell growth in a cell viability assay.

[12] = test system: J-RT3-T3-5; type: functional, cell-based, Homo sapiens; conditions: Homo sapiens, J-RT3-T3-5;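 also: cell viability assay measuring growth inhibition of human J-RT3-T3-5 cells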
Description: SANGER: Inhibition of human J-RT3-T3-5 cell growth in a cell viability assay.

[13] = test system: JVM-2; type: functional, cell-based, Homo sapiens; conditions: Homo sapiens, JVM-2;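 also: growth inhibition of JVM-2 cells determined by a cell viability assay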
Description: SANGER: Inhibition of human JVM-2 cell growth in a cell viability assay.

[14] = test system: K562; type: functional, cell-based, Homo sapiens; conditions: Homo sapiens, K562
Description: SANGER: Inhibition of human K-562 cell growth in a cell viability assay.

[15] = test system: K5; type: functional, cell-based, Homo sapiens; conditions: Homo sapiens, K5
Description: SANGER: Inhibition of human K5 cell growth in a cell viability assay.

[16] = test system: KALS-1; type: functional, cell-based, Homo sapiens; conditions: Homo sapiens, KALS-1;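 also: growth inhibition of KALS-1 cells, determined with a cell viability assay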
Description: SANGER: Inhibition of human KALS-1 cell growth in a cell viability assay.

[17] = test system: KE-37; type: functional, cell-based, Homo sapiens; conditions: Homo sapiens, KE-37;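 also: growth inhibition of KE-37 cells, read out with a cell viability assay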
Description: SANGER: Inhibition of human KE-37 cell growth in a cell viability assay.

[18] = test system: KNS-42; type: functional, cell-based, Homo sapiens; conditions: Homo sapiens, KNS-42;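 also: growth inhibition of KNS-42 cells, read out with a cell viability assay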
Description: SANGER: Inhibition of human KNS-42 cell growth in a cell viability assay.

[19] = test system: KURAMOCHI; type: functional, cell-based, Homo sapiens; conditions: Homo sapiens, KURAMOCHI;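 also: growth inhibition of KURAMOCHI cells, read out with a cell viability assay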
Description: SANGER: Inhibition of human KURAMOCHI cell growth in a cell viability assay.

[20] = test system: LS-123; type: functional, cell-based, Homo sapiens; conditions: Homo sapiens, LS-123
Description: SANGER: Inhibition of human LS-123 cell growth in a cell viability assay.

[21] = test system: ML-2; type: functional, cell-based, Homo sapiens; conditions: Homo sapiens, ML-2;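 also: growth inhibition of ML-2 cells, measured with a cell viability readout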
Description: SANGER: Inhibition of human ML-2 cell growth in a cell viability assay.

[22] = test system: MV4-11; type: functional, cell-based, Homo sapiens, MV-4-11; conditions: Homo sapiens, MV4-11;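 also: cell viability readout measuring growth inhibition of human MV-4-11 cells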
Description: SANGER: Inhibition of human MV-4-11 cell growth in a cell viability assay.

[23] = test system: NB5; type: functional, cell-based, Homo sapiens; conditions: Homo sapiens, NB5;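 also: growth inhibition of NB5 cells, read out as cell viability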
Description: SANGER: Inhibition of human NB5 cell growth in a cell viability assay.

[24] = test system: NCI-H1355; type: functional, cell-based, Homo sapiens; conditions: Homo sapiens, NCI-H1355;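 also: growth inhibition of human NCI-H1355 cells, read out by a cell viability assay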
Description: SANGER: Inhibition of human NCI-H1355 cell growth in a cell viability assay.

[25] = test system: NCI-H1395; type: functional, cell-based, Homo sapiens; conditions: Homo sapiens, NCI-H1395;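 also: cell viability assay read-out quantifying reduced proliferation of human NCI-H1395 cells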
Description: SANGER: Inhibition of human NCI-H1395 cell growth in a cell viability assay.

[26] = test system: NCI-H23; type: functional, cell-based, Homo sapiens; conditions: Homo sapiens, NCI-H23;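 also: cell viability assay measuring growth inhibition of NCI-H23 cells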
Description: SANGER: Inhibition of human NCI-H23 cell growth in a cell viability assay.

[27] = test system: NCI-N87; type: functional, cell-based, Homo sapiens; conditions: Homo sapiens, NCI-N87;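 also: growth inhibition of human NCI-N87 cells, read out with a cell viability assay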
Description: SANGER: Inhibition of human NCI-N87 cell growth in a cell viability assay.

[28] = test system: NOMO-1; type: functional, cell-based, Homo sapiens; conditions: Homo sapiens, NOMO-1;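 also: growth inhibition of human NOMO-1 cells measured by a cell viability assay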
Description: SANGER: Inhibition of human NOMO-1 cell growth in a cell viability assay.

[29] = test system: NTERA-2-cl-D1; type: functional, cell-based, Homo sapiens; conditions: Homo sapiens, NTERA-2-cl-D1;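 also: inhibition of cell growth, measured with a cell viability assay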
Description: SANGER: Inhibition of human NTERA-S-cl-D1 cell growth in a cell viability assay.

[30] = test system: OCUB-M; type: functional, cell-based, Homo sapiens; conditions: Homo sapiens, OCUB-M;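 also: growth inhibition of the cancer cell line, read out through a cell viability assay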
Description: SANGER: Inhibition of human OCUB-M cell growth in a cell viability assay.

[31] = test system: ONS-76; type: functional, cell-based, Homo sapiens; conditions: Homo sapiens, ONS-76;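 also: growth inhibition of human ONS-76 cells, read out with a cell viability assay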
Description: SANGER: Inhibition of human ONS-76 cell growth in a cell viability assay.

[32] = test system: RH-1; type: functional, cell-based, Homo sapiens; conditions: Homo sapiens, RH-1;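 also: growth inhibition of human RH-1 cells, read out with a cell viability assay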
Description: SANGER: Inhibition of human RH-1 cell growth in a cell viability assay.

[33] = test system: RPMI-8226; type: functional, cell-based, Homo sapiens; conditions: Homo sapiens, RPMI-8226
Description: SANGER: Inhibition of human RPMI-8226 cell growth in a cell viability assay.

[34] = test system: RPMI-8866; type: functional, cell-based, Homo sapiens; conditions: Homo sapiens, RPMI-8866
Description: SANGER: Inhibition of human RPMI-8866 cell growth in a cell viability assay.

[35] = test system: SK-MEL-1; type: functional, cell-based, Homo sapiens; conditions: Homo sapiens, SK-MEL-1;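 also: growth inhibition of human SK-MEL-1 cells, read out by a cell viability assay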
Description: SANGER: Inhibition of human SK-MEL-1 cell growth in a cell viability assay.

[36] = test system: SK-UT-1; type: functional, cell-based, Homo sapiens; conditions: Homo sapiens, SK-UT-1;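 also: growth inhibition of SK-UT-1 cells, measured by a cell viability assay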
Description: SANGER: Inhibition of human SK-UT-1 cell growth in a cell viability assay.

[37] = test system: SW684; type: functional, cell-based, Homo sapiens; conditions: Homo sapiens, SW684;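 also: growth inhibition of human SW684 cells, measured by a cell viability assay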
Description: SANGER: Inhibition of human SW684 cell growth in a cell viability assay.

[38] = test system: SW 954; type: functional, cell-based, Homo sapiens; conditions: Homo sapiens, SW 954;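 also: growth inhibition of SW954 human cancer cells, read out as cell viability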
Description: SANGER: Inhibition of human SW954 cell growth in a cell viability assay.

[39] = test system: A101D; type: functional, cell-based, Homo sapiens; conditions: Homo sapiens, A101D;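 also: growth inhibition of the cell line, measured with a viability assay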
Description: SANGER: Inhibition of human A101D cell growth in a cell viability assay.

[40] = test system: AM-38; type: functional, cell-based, Homo sapiens; conditions: Homo sapiens, AM-38;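 also: growth inhibition of AM-38 cells of human origin, read out by a cell viability assay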
Description: SANGER: Inhibition of human AM-38 cell growth in a cell viability assay.

[41] = test system: BB49-HNC; type: functional, cell-based, Homo sapiens; conditions: Homo sapiens, BB49-HNC;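 also: cell viability assay read-out, reported as inhibition of BB49-HNC cell growth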
Description: SANGER: Inhibition of human BB49-HNC cell growth in a cell viability assay.

[42] = test system: C2BBe1; type: functional, cell-based, Homo sapiens; conditions: Homo sapiens, C2BBe1;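 also: growth inhibition of C2BBe1 cells, read out through a viability assay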
Description: SANGER: Inhibition of human C2BBe1 cell growth in a cell viability assay.

[43] = test system: TE-10; type: functional, cell-based, Homo sapiens; conditions: Homo sapiens, TE-10;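 also: growth inhibition of TE-10 cells, measured by a cell viability assay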
Description: SANGER: Inhibition of human TE-10 cell growth in a cell viability assay.

[44] = test system: TE-12; type: functional, cell-based, Homo sapiens; conditions: Homo sapiens, TE-12;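 also: growth inhibition of TE-12 cells, read out by a cell viability assay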
Description: SANGER: Inhibition of human TE-12 cell growth in a cell viability assay.

[45] = test system: TE-9; type: functional, cell-based, Homo sapiens; conditions: Homo sapiens, TE-9;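 also: cell growth inhibition, measured with a cell viability readout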
Description: SANGER: Inhibition of human TE-9 cell growth in a cell viability assay.

[46] = test system: CGTH-W-1; type: functional, cell-based, Homo sapiens; conditions: Homo sapiens, CGTH-W-1;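 also: growth inhibition of human CGTH-W-1 cells measured by cell viability assay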
Description: SANGER: Inhibition of human CGTH-W-1 cell growth in a cell viability assay.

[47] = test system: COLO-668; type: functional, cell-based, Homo sapiens; conditions: Homo sapiens, COLO-668
Description: SANGER: Inhibition of human COLO-668 cell growth in a cell viability assay.

[48] = test system: COLO-684; type: functional, cell-based, Homo sapiens; conditions: Homo sapiens, COLO-684
Description: SANGER: Inhibition of human COLO-684 cell growth in a cell viability assay.

Compound: N#Cc1c(O)c2c(-c3ccc(-c4ccccc4O)cc3)csc2[nH]c1=O
- IC50 [1]: > 1020 nM
- IC50 [2]: 725 nM
- IC50 [3]: > 1020 nM
- IC50 [4]: 489 nM
- IC50 [5]: 245 nM
- IC50 [6]: 344 nM
- IC50 [7]: > 1020 nM
- IC50 [8]: > 1020 nM
- IC50 [9]: > 1020 nM
- IC50 [10]: 458 nM
- IC50 [11]: > 1020 nM
- IC50 [12]: 378 nM
- IC50 [13]: > 1020 nM
- IC50 [14]: > 1020 nM
- IC50 [15]: > 1020 nM
- IC50 [16]: > 1020 nM
- IC50 [17]: 129 nM
- IC50 [18]: > 1020 nM
- IC50 [19]: > 1020 nM
- IC50 [20]: > 1020 nM
- IC50 [21]: 43.4 nM
- IC50 [22]: 22.7 nM
- IC50 [23]: > 1020 nM
- IC50 [24]: > 1020 nM
- IC50 [25]: > 1020 nM
- IC50 [26]: > 1020 nM
- IC50 [27]: > 1020 nM
- IC50 [28]: 263 nM
- IC50 [29]: > 1020 nM
- IC50 [30]: > 1020 nM
- IC50 [31]: > 1020 nM
- IC50 [32]: > 1.02 µM
- IC50 [33]: 246 nM
- IC50 [34]: > 1020 nM
- IC50 [35]: > 1020 nM
- IC50 [36]: > 1.02 µM
- IC50 [37]: > 1020 nM
- IC50 [38]: > 1020 nM
- IC50 [39]: > 1020 nM
- IC50 [40]: 64.4 nM
- IC50 [41]: > 1020 nM
- IC50 [42]: > 1020 nM
- IC50 [43]: > 1020 nM
- IC50 [44]: > 1020 nM
- IC50 [45]: > 1020 nM
- IC50 [46]: > 1020 nM
- IC50 [47]: > 1020 nM
- IC50 [48]: 303 nM

Compound: O=C(O)c1ccc(-c2c[nH]c3ncc(-c4ccccc4)cc23)cc1C1CCCC1 [GSK-650394]
- IC50 [1]: > 16000 nM
- IC50 [2]: > 16000 nM
- IC50 [4]: > 16000 nM
- IC50 [5]: > 16000 nM
- IC50 [6]: > 16000 nM
- IC50 [7]: > 16000 nM
- IC50 [8]: > 16000 nM
- IC50 [9]: > 16000 nM
- IC50 [10]: > 16000 nM
- IC50 [11]: 1300 nM
- IC50 [12]: > 16000 nM
- IC50 [13]: > 16000 nM
- IC50 [14]: > 16000 nM
- IC50 [15]: > 16000 nM
- IC50 [16]: > 16000 nM
- IC50 [17]: > 16000 nM
- IC50 [18]: > 16000 nM
- IC50 [19]: > 16000 nM
- IC50 [20]: > 16000 nM
- IC50 [21]: > 16000 nM
- IC50 [22]: 165 nM
- IC50 [23]: > 16000 nM
- IC50 [24]: > 16000 nM
- IC50 [25]: > 16000 nM
- IC50 [26]: > 16000 nM
- IC50 [27]: > 16000 nM
- IC50 [28]: > 16000 nM
- IC50 [29]: 3550 nM
- IC50 [30]: 2790 nM
- IC50 [31]: 4140 nM
- IC50 [32]: 7.73 µM
- IC50 [33]: > 16000 nM
- IC50 [34]: > 16000 nM
- IC50 [35]: > 16000 nM
- IC50 [36]: 11.8 µM
- IC50 [37]: > 16000 nM
- IC50 [38]: 4460 nM
- IC50 [39]: 9270 nM
- IC50 [40]: > 16000 nM
- IC50 [41]: > 16000 nM
- IC50 [42]: > 16000 nM
- IC50 [43]: 14500 nM
- IC50 [44]: 1990 nM
- IC50 [45]: > 16000 nM
- IC50 [46]: 2100 nM
- IC50 [47]: > 16000 nM
- IC50 [48]: > 16000 nM

Compound: Nc1ccn([C@@H]2O[C@H](CO)[C@@H](O)C2(F)F)c(=O)n1 [GEMCITABINE]
- IC50 [1]: > 1020 nM
- IC50 [2]: > 1020 nM
- IC50 [4]: 84.4 nM
- IC50 [5]: 196 nM
- IC50 [6]: 160 nM
- IC50 [7]: < 4 nM
- IC50 [8]: > 1020 nM
- IC50 [9]: > 1020 nM
- IC50 [10]: 35.1 nM
- IC50 [11]: < 4 nM
- IC50 [12]: 67.2 nM
- IC50 [13]: > 1020 nM
- IC50 [14]: 333 nM
- IC50 [15]: 683 nM
- IC50 [16]: 21.4 nM
- IC50 [17]: < 4 nM
- IC50 [18]: 736 nM
- IC50 [19]: > 1020 nM
- IC50 [20]: 40.3 nM
- IC50 [21]: 25.7 nM
- IC50 [22]: < 4 nM
- IC50 [23]: > 1020 nM
- IC50 [24]: < 4 nM
- IC50 [25]: > 1020 nM
- IC50 [26]: 211 nM
- IC50 [27]: 333 nM
- IC50 [28]: 28.7 nM
- IC50 [29]: 1.64 nM
- IC50 [30]: 10 nM
- IC50 [31]: 8.68 nM
- IC50 [32]: < 0.004 µM
- IC50 [33]: 16 nM
- IC50 [34]: 95.2 nM
- IC50 [35]: > 1020 nM
- IC50 [36]: < 0.004 µM
- IC50 [37]: > 1020 nM
- IC50 [38]: 23.7 nM
- IC50 [39]: 9.37 nM
- IC50 [40]: < 4 nM
- IC50 [41]: > 1020 nM
- IC50 [42]: > 1020 nM
- IC50 [43]: 16.2 nM
- IC50 [44]: > 1020 nM
- IC50 [45]: 190 nM
- IC50 [46]: 2.72 nM
- IC50 [47]: 2.66 nM
- IC50 [48]: 26.4 nM
